Experimental data taken from EP1238058B1, “USE OF COLOSTRININ, C[…] AND ANALOGS THEREOF TO PROMOTE NEURAL CELL DIFFERENTIATION” (THE UNIVERSITY OF TEXAS SYSTEM, priority 1999, dated 2001).

System: medullary pheochromocytoma (PC 12) cells
Assay: PC12 cell differentiation (morphology) assay
Format: cell-based
Settings: TPA 10 ng per ml, negative control
Method: Cells: PC12 cell line derived from medullary pheochromocytoma cells were used to undertake studies described bellow. PC 12 cells were obtained from the American Type Culture Collection and maintained in RPMI-1640 supplemented with 10% fetal bovine serum (HYCLONE Inc), penicillin (100 U/ml) and streptomycin (100 µg/ml).
Methods: To evaluate the effect of colostrum, colostrinin and its component peptides on cell differentiation 3 x 10^4 logarithmically replicating (70% confluence) PC 12 cells were seeded in 24 x well plates and cells were allowed to adhere and grow for 24 hours. Serum containing media were aspirated and replaced for serum-free RPMI containing appropriate amount of antibiotics. In four parallel, increasing concentrations (0.1, 1, 10 and 100 µg per ml) of colostrum, colostrinin and its component peptides were added directly into the media and incubated at 37°C. As a positive control, nerve growth factor (NGF) 7S (Gibco-BRL) was used at 100 ng per ml concentration (Chao et al., Cell, 68, 995-997 (1992); and Marshall et al., Cell, 80, 179-185 (1995)). Phorbol 12-myristate 13-acetate (TPA: 10 ng per ml) was used as a negative control. Eight hours later the media were changed and RPMI-1640 was added containing 1% or 10% fetal bovine serum. The cultures were microscopically investigated 2nd, 4th and 6th days after treatment. […]

Phorbol 12-myristate 13-acetate [TPA]
background level of differentiation: less than 0.01%
